Laboratory results from article PMC10195864, “Stereochemical engineering yields a multifunctional peptide macrocycle inhibitor of Akt2 by fine-tuning macrocycle-cell membrane interactions” (Communications Chemistry, 2023).
Where “and” joins values, the source holds several entries; their conditions need not be identical. Equal values may be shown once. Entries after “also recorded” stand apart in the source; their conditions may differ. Read-outs that look alike come from different tables or passages of the source. Positions of bridges follow the written chain, without caps; N, C: chain ends. Non-standard residues stand in square brackets, D forms with d. Residues, ends and D or L forms follow the SMILES beside them. R8 = C=CCCCCCC[C@@](C)(N)C(=O)O; S5 = C=CCCC[C@](C)(N)C(=O)O

Legend:
[1] = target: T1, pAkt2 (active His6-tagged Akt2) (Homo sapiens, UniProt P31751); assay: ELISA for peptides against full-length pAkt2 protein (serial dilution); format: binding; details: biotinylated ligand immobilized, His6-pAkt2 titrated
T1 construct: purchased Abcam
T1 sequence (P31751 whole entry): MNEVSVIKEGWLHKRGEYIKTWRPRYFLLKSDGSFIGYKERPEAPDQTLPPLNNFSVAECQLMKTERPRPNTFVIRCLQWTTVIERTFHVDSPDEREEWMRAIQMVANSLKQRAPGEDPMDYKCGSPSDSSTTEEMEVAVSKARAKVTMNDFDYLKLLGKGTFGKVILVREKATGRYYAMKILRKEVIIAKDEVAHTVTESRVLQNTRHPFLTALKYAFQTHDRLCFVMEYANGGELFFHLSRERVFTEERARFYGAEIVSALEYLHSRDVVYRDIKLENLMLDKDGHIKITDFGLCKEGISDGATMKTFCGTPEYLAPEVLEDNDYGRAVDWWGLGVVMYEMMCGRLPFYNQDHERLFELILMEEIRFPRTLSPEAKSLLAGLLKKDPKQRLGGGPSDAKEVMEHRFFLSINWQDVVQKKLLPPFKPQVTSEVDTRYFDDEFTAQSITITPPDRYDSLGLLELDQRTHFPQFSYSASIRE
Method: A total of 2 μM solution of each biotinylated peptide was prepared in binding buffer. A total of 100 μL of each solution was added to each well of a High-Capacity Streptavidin 96 well plate (Thermo Scientific), and the plate was shaken for 2 h at room temperature. The wells were blocked with 5% milk in 25 mM tris chloride, pH = 7.4, 150 mM NaCl and 0.05% Tween 20 (TBST). The wells were washed with binding buffer five times. Serial dilutions of active His6-tagged Akt2 were made in the binding buffer. A total of 100 μL of each solution was added per well, and the plate was shaken overnight at 4 °C. The wells were washed three times with the binding buffer, then treated for an hour with a 1:1000 dilution of anti 6X His mouse monoclonal [HIS.H8] antibody. A 1:10,000 dilution of goat anti-mouse antibody-Horse Radish Peroxide conjugate in binding buffer was added to the wells for an hour. The plate was washed three times with TBST and once with TBS (25 mM tris chloride, pH = 7.5, 150 mM NaCl), treated with TMB substrate (KPL), and quenched with sulfuric acid, and the absorbance at 450 nm wavelength measured. From the absorbance values at 450 nm wavelength (A450) for each protein concentration, the corresponding blank A450 (no ligand immobilized, same concentration of protein added) was subtracted. They were then fitted by non-linear regression in GraphPad Prism 6.

[2] = test system: recombinant Akt3; design: method as in PMID 25329478; details: recombinant Akt; cited from earlier work
[3] = target: T2, pAkt2 (Homo sapiens, UniProt P31751); assay: Protein selectivity ELISA, 25 nM protein; format: binding; details: for binding to pAkt2: single-point ELISA, 25 nM protein, A450
T2 construct: purchased Abcam
T2 sequence (P31751 whole entry): as above
Method: A total of 1.25 μM biotinylated ligand was prepared by diluting the 1 mM stock in binding buffer (0.1% BSA, 25 mM trisCl, pH = 7.5, 150 mM NaCl, 0.05% Tween20). The prepared ligand solution or 0.125% DMSO (buffer control) in binding buffer was immobilized on a High-Capacity Streptavidin 96 well plate (Thermo Scientific). After washing the excess ligand, the plate was blocked overnight with 1% BSA in TBST. […] After three washes with the binding buffer, the plate was treated for an hour with a 1:1000 dilution of anti-His6 mouse monoclonal antibody in the binding buffer. A 1:10,000 dilution of goat anti-mouse antibody conjugated to Horse Radish Peroxide in binding buffer was added to the wells. The plates were washed four times, five minutes each, with TBST and once with TBS. The color was developed by adding TMB substrate to each well. The reaction was quenched with 0.5 M H2SO4. The absorbance values at 450 nm (A450) were measured on a 96-well plate reader. The Net A450 was obtained by subtracting the absorbance value for the blank control (no immobilized ligand) from each triplicate value obtained for the ligand–epitope interaction.

[4] = target: T1, pAkt2 (active His6-tagged Akt2); design: method as in PMID 26377818; details: read-out: EC50 against pAkt2; cited from earlier work
[5] = target: T3, target phosphopeptide epitope, Akt2 amino acids 450–481 (pS474) (Homo sapiens, UniProt P31751); assay: Epitope selectivity ELISA, 2.5 µM His6-tagged epitope; format: binding; details: 1.25 µM ligand immobilized, 2.5 µM epitope
T3 construct: made in house; host or cells: chemical solid-phase peptide synthesis
T3 sequence (P31751 450-481 limits assumed): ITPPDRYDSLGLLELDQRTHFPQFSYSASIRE
Method: A total of 1.25 μM biotinylated ligand was prepared by diluting the 1 mM stock in binding buffer (0.1% BSA, 25 mM trisCl, pH = 7.5, 150 mM NaCl, 0.05% Tween20). The prepared ligand solution or 0.125% DMSO (buffer control) in binding buffer was immobilized on a High-Capacity Streptavidin 96 well plate (Thermo Scientific). After washing the excess ligand, the plate was blocked overnight with 1% BSA in TBST. 2.5 μM solutions of the His6-tagged target phosphopeptide epitope, Akt2 amino acids 450–481, or His6-tagged scrambled peptide was added to each of the wells and incubated overnight. After three washes with the binding buffer, the plate was treated for an hour with a 1:1000 dilution of anti-His6 mouse monoclonal antibody in the binding buffer. A 1:10,000 dilution of goat anti-mouse antibody conjugated to Horse Radish Peroxide in binding buffer was added to the wells. The plates were washed four times, five minutes each, with TBST and once with TBS. […] The absorbance values at 450 nm (A450) were measured on a 96-well plate reader. The Net A450 was obtained by subtracting the absorbance value for the blank control (no immobilized ligand) from each triplicate value obtained for the ligand–epitope interaction. […]
-FPQF(pS)YSAS-IRE and the scrambled epitope His6–Peg2-ITPPDRYDSLGLLELQRTH-YFFASQPSS-IRE overnight. […] The absorbance at 450 nm is measured to quantitate the binding. […]

[6] = target: macrocycle C2, Cy(YYTYTG-rcm); assay: ELISA; biotinylated peptide (2 μM) immobilised on a streptavidin plate; serial dilutions of active His6-tagged Akt2 in binding buffer (0.1% BSA, 25 mM trisCl pH 7.5, 150 mM NaCl, 0.05% Tween20), overnight at 4 °C; detected with anti-His6 antibody; A450 fitted by non-linear regression

| Compound | binding to pAkt2 [3] | further results |
| --- | --- | --- |
| C[C@@H](O)[C@@H]1NC(=O)[C@H](Cc2ccc(O)cc2)NC(=O)[C@H]([C@@H](C)O)NC(=O)[C@H](Cc2ccc(O)cc2)NC(=O)[C@H](Cc2ccc(O)cc2)NC(=O)[C@](C)(N)CCCCCCC=CCCC[C@@](C)(C(N)=O)NC(=O)CNC1=O [C2, Cy(YYTYTG-rcm)] (H-[R8]YYTYTG[S5]-NH2; staple 1-8; N-terminus and C-terminus assumed) | – | EC50 [1]: 44 nM and 42 nM |
| NC1(c2ccc(-c3nc4ccn5c(=O)[nH]nc5c4cc3-c3ccccc3)cc2)CCC1 [MK-2206] | – | inhibition of Akt3 relative to Akt1 and Akt2 [2]: five-fold less |
| Cy(4fF-4fF-TYTG-rcm) | higher binding than C2 | – |
| Cy(4fF-YTYTG-rcm) | higher signal than C2 | – |
| Cy(-Y4fF-TYTG-rcm) | higher signal than C2 | – |
| Cy(YYT-4fF-TG-rcm) | decreases binding | – |
| Cy(YYTYT-Tz4) [C1] | binds to the target pAkt2 protein | selectivity for pAkt2 over other pAkt isoforms ([3]; 25 nM His6-pAkt1, pAkt2, pAkt3): selective for pAkt2 over the other two isoforms; EC50 [4]: 120 nM; binding to target phosphorylated chemical epitope [5]: better binding affinity for target chemical; also recorded: binds significantly better than the linear non-cyclized; also recorded: is a better binder than the latter |
| Cy(YYTYTG-Tz4) | does not | – |
| Cy(YYTY’T’Grcm) | show no binding | – |
| Cy(Y’YTY’TGrcm) | show no binding | – |
| full-length active His6-tagged Akt2, phosphorylated at Ser474 (pAkt2) (from UniProt P31751 1-481) (enzyme) | – | EC50 [6]: 44 nM |
